Assay results as given in patent US8618145B2, “Small molecular compounds capable of accelerating proliferation of stem cells and use thereof” (priority 2009, dated 2013).

Assays:
[1] = tested on: AD rat model (aggregated Aβ1-40 injected in hippocampus); assay: pharmacodynamic evaluation in AD rat (Morris water maze); type: in vivo; conditions: tail vein injection, administration for 14 days, FIG. 5
Procedure: Establishment of AD rat model: in the experiment, stereotaxic instrument and micro-injection pump are used to inject aggregated Aβ1-40 (5 ug/ul) 2 ul (0.4 ul/min, 5 min) to the dorsal blade of the dentate gyrus in the hippocampus of rat (3.0 mm behind anterior fontanelle, open at right 2.0 mm, subdural 3.2 mm, Incisor hook plane is 2.4 mm lower than the interaural line plane), the model is established after 2 weeks. […]
Pharmacodynamic experiment (Morris water maze): the experimental apparatus is a rustless steel round pool with a height of 60 cm, and a diameter of 150 cm (both the bottom and wall of the pool are covered by black paster to facilitate the video camera for distinguishing the white rats in pool), the video camera is connected to a computer; the pool is divided into four quadrants, and a platform is placed in the middle of the first quadrant. […] The experimental rats enter water from four different positions, the video camera records the swimming paths of each experimental rats, and the experimental results are analyzed by image processing software. […] During the experiment, the time the rat taken from entering water to climbing onto the platform (i.e., escape latency) is recorded, and the rat is allowed to stay on the platform for 10 sec. […] The escape latency of the animals, times of rearing up, and spatial bias are recorded and compared.

[2] = tested on: Embryonic stem cell; assay: embryonic stem cell proliferation, ATP method (CellTiter-Glo); type: cell-based; conditions: serum free medium, culturing 1 to 4 days, FIG. 1
Procedure: (§1) Embryonic stem cell (obtained from oosperm according to the conventional method) is cultured in serum free medium (a conventional medium, such as DMEM/F12, αMEM, 1640, etc.). The experiments are divided into control group, FGF group, neural stem cells proliferation accelerator Ia group, FGF+neural stem cells proliferation accelerator Ia group. After culturing for 1 to 4 days, the kit CellTiter-Glo®Luminescent Cell Viability Assay (Promega) is used to detect cells proliferation by ATP method. The ATP method is performed in accordance with operational steps of the kit.
Therefore, Ia accelerates the proliferation of embryonic stem cells.

[3] = tested on: hippocampus cells of AD rat; assay: HE staining of hippocampus cells in AD rat; type: in vivo; conditions: AD rat of Example 13, dosage-dependent, FIG. 6 and FIG. 7
Procedure: The rats in Example 13 are perfused and their brains are taken. Rats are anesthetized with 10% chloral hydrate (0.3 ml/100 g). Heparin (200 ug/kg) is injected to the left ventricular, and the right atrial appendage is cut off. 40 ml physiological saline and then 300 ml 4% paraformaldehyde are perfused to the left ventricular to harden the brain. Brain taken: after breaking the neck, the skull is peeled to expose olfactory bulb, peeling it from olfactory bulb with a small curved scissor. After optic nerve is cut off, it is slowly peeled to naturally fall, the adhesion sites are cut off, and are placed into 4% paraformaldehyde solution overnight. It is dehydrated with gradient alcohol and is embedded in olefin, sectioned and floated.
HE staining: dewaxing with dimethylbenzene twice, each for 3 min. Hydration: hydration with descending concentration gradient alcohol: 100%→95%→90%→80%→70%. Dehydration lasts for 2˜3 mins to remove dimethylbenzene during each gradient. Water washing: ethanol is removed. It is dipped into a hematoxylin solution for 5-10 mins, and washed with tap-water. It is dipped into a dilute hydrochloric acid-ethanol solution to carry out color separation for only a few seconds. It is washed with tap-water and dipped into dilute ammonia to make the cell nucleus blue for 3-5 mins. […] It is mounted with neutral resin, and observed by […].

[4] = tested on: Human neural stem cells; assay: human neural stem cell proliferation, MTT; type: cell-based; conditions: DMEM/F12+10% fetal bovine serum+EGF, bFGF, 4 days, FIG. 2
Procedure: Human neural stem cells (provided according to conventional methods by Peking University Stem Cell Research Center) is prepared into a single cell suspension by using a medium (DMEM/F12+10% fetal bovine serum+20 ng/mIEGF, bFGF), and is seeded at 2×10^4/well on 96-well plate. The experiments are divided into medium control group (a group without adding a medicine); medium+small molecular compound Ia group (a group with a medicine added). After culturing for 4 days, MTT (5 mg/ml) 10 ul is added. After incubating for 4 hours, a 100 μl lysis solution (10% SDS, 0.1% NH4Cl) is added. The mixture is incubated overnight. The light absorption value is detected at 490 nm.
The experimental results are shown in FIG. 2, the height of the histogram represents absorbance, which is proportional to the number of cells (which has the same vertical coordinate in the MTT method, and is not explained one by one).

[5] = tested on: Human mesenchymal stem cells; assay: human mesenchymal stem cell proliferation, MTT; type: cell-based; conditions: α-MEM+10% fetal bovine serum, 2 days, FIG. 3
Procedure: (§2) Human (rat) mesenchymal stem cells (a cell line obtained according to conventional method) is prepared into a single cell suspension by using a medium (α-MEM+10% fetal bovine serum), and is seeded at 1×10^4/well on 96-well plate. The experiments are divided into medium control group; and medium+small molecular compound Ia group. After culturing for 2 days, MTT (5 mg/ml) 10 ul is added. After incubating for 4 hours, a 100 μl lysis solution (10% SDS, 0.1% NH4Cl) is added. The mixture is incubated overnight. The light absorption value is detected at 490 nm.

[6] = tested on: Rat neural stem cells; assay: rat neural stem cell proliferation, ATP method; type: cell-based; conditions: serum free medium; for proliferation rate of neural stem cells in rat: rat adult neural stem cells
Procedure: as §1
Rat neural stem cells are cultured in serum free medium. The experiments are divided into control group, FGF group, small molecular compound Ia group, and FGF+small molecular compound Ia group. The detection is carried out by ATP method (see the method in Example 6). Small molecular compound Ib, Ic, Id, Ie, If, Ig also conduct said experiment.

[7] = tested on: rat mesenchymal stem cells; assay: rat mesenchymal stem cell proliferation, MTT; type: cell-based; conditions: α-MEM+10% fetal bovine serum, 2 days, FIG. 4
Procedure: as §2

| Compound | ability of learning and memory (water maze) [1] | embryonic stem cell proliferation (chemiluminescence intensity) [2] | degeneration of hippocampus cells (HE staining) [3] | human neural stem cell proliferation (absorbance at 490 nm) [4] | human mesenchymal stem cell proliferation [5] | proliferation rate of neural stem cells in rat [6] | effect on rat neural stem cell proliferation (in words) [6] | rat mesenchymal stem cell proliferation [7] |
| --- | --- | --- | --- | --- | --- | --- | --- | --- |
| NNC(=S)Nc1ccc(-c2nnc(S)o2)cc1 [Ia, 4-(4-(5-mercapto-1,3,4-oxadiazol-2-yl)phenyl) thiosemicarbazide] | improved ability of learning and memory | significantly increased | less seriously degenerated | accelerates human neural stem cell proliferation | accelerates human mesenchymal stem cell proliferation | 4.2 | accelerate rat neural stem cell proliferation | accelerates rat mesenchymal stem cell proliferation |
| CSc1nnc(-c2ccc(NC(=S)NN)cc2)o1 [Ib, 4-(4-(5-(methylthio)-1,3,4-oxadiazol-2-yl)phenyl) thiosemicarbazide] |  |  |  |  |  | 2 | accelerate rat neural stem cell proliferation |  |
| CNC(=S)Nc1ccc(-c2nnc(SC)o2)cc1 [Ic, 1-methyl-3-(4-(5-(methylthio)-1,3,4-oxadiazol-2-yl)phenyl)thiourea] |  |  |  |  |  | 1.5 | accelerate rat neural stem cell proliferation |  |
| NNC(=O)Nc1ccc(-c2nnc(S)o2)cc1 [Id, 4-(4-(5-mercapto-1,3,4-oxadiazol-2-yl)phenyl) semicarbazide] |  |  |  |  |  | 1.7 | accelerate rat neural stem cell proliferation |  |
| S=C(NNc1ccc(Cl)cc1)Nc1ccc(-c2nnc(S)o2)cc1 [Ie] |  |  |  |  |  | 2.5 | accelerate rat neural stem cell proliferation |  |
| COc1ccc(NNC(=S)Nc2ccc(-c3nnc(S)o3)cc2)cc1 [If] |  |  |  |  |  | 2.3 | accelerate rat neural stem cell proliferation |  |
| CNC(=S)Nc1ccc(-c2nnc(O)o2)cc1 [Ig, 1-methyl-3-(4-(5-oxo-4,5-dihydro-1,3,4-oxadiazol-2-yl)phenyl)thiourea] |  |  |  |  |  | 2.4 | accelerate rat neural stem cell proliferation |  |
